The IC50 is the concentration needed to halve the response being measured.

The values below come from patent publication US7667052B2 (Eisai R&D Management Co., Ltd., priority 2003, dated 2010).

In series [1] the test system is VEGF production in U251 human glioma cell. Description: VEGF production suppressing action under low oxygen, ELISA. The format is cell-based. As to the method: U251 human glioma cell cultured in DULBECCO-modified eagle medium (DMEM; manufactured by SIGMA Co., Ltd.) containing 10% fetal calf serum, penicillin (100 unit/ml) and streptomycin (100 μg/ml) was dispensed in 96-well plates by 4×10^4 cells/well. After culturing at 37° C. overnight in a CO2 incubator (5% CO2), the media were removed, and 180 μl of the above-mentioned incubation solution was charged. After adding 20 μL of the above-mentioned incubation solution containing the test compound diluted with 3-fold succession, they were incubated in a low oxygen (2% O2) incubator for 18 hours. The supernatants thereof were measured by an ELISA kit (Immunobiology Research Institute).
Concentration at which the amount of VEGF expressed by low oxygen stimulation was suppressed to 50% (IC50 value) was determined and results are shown in Table 9. […] The activities of 11107F and 11107G were very weak.
(ELISA stands for enzyme-linked immunosorbent assay.)

In series [2] the test system is transcription from VEGF promoter. Kind of series: VEGF transcription-suppressing activity, VEGF-PLAP reporter in U251/1-8 cell. The format is cell-based. The conditions noted are these: Homo sapiens, U-251, U251/1-8 cell, PLAP activity, low oxygen 18 hours. The method, boiled down:
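U251 glioma clone stably carrying a ~2.3 kb human VEGF promoter–secreted PLAP reporter, 4×10^4 cells/well, exposed to 3-fold dilutions of compound for 18 h under low oxygen. Supernatant PLAP read by chemiluminescence at pH 10.0; IC50 = 50% suppression, normoxia 0%, hypoxia 100%.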

Series [3] is described as follows: Solubility (physico-chemical properties of the 11107 analogues). Conditions: in dimethylsulfoxide, pyridine, methanol, acetone and water.
The next series concerns P388 mouse leukemia cell. Conditions: Seki-Asano M. et al, J. Antibiotics Vol. 47, 1395-1401, 1994; cited from earlier work.
Series [4] has as its system human breast cancer BSY-1 cell. Kind of series: Solid cancer proliferation suppressing action, subcutaneous transplant. The format is in vivo, mice. The conditions noted are these: 10 mg/kg once intravenous. As to the method:
In order to study solid cancer proliferation suppressing action of 11107B in vivo, human breast cancer BSY-1 cell was transplanted to the subcutaneous body sides of mice. The animals were grouped so that the average of the volumes of the respective groups became uniform, when it reached about 100 mm^3. Control group was made as 10 mice and 11107B-administering groups were made as 5 mice. 11107B was administrated for the 11107B-administering groups once by intravenous injection so as to be 10 mg/kg, and a vehicle was administered to the control group. The tumor volumes on the fifth day, eighth day, 12th day and 15th day were measured, and relative tumor volumes were determined setting the tumor volume at the initiation of administration as 1.

SMILES strings stand for the structures. Read-outs that look alike come from different tables or passages of the source.

`CCC(O)C(C)C1OC1CC(C)(O)/C=C/C=C(\C)C1OC(=O)CC(O)CCC(C)(O)C(OC(C)=O)/C=C/C1C` (centres unmarked) [11107D]: in series [1] (U251, low oxygen stimulation), the “VEGF production suppression, in words” value is on record as “strong successive to 11107B”. In addition, the values for the IC50 in series [2] (read-out: IC50 values of VEGF transcription-suppressing activity (range given)) and in series [2] (read-out: VEGF transcription suppressing activity (IC50: nM)) were 1 to 100 nM and 6.6 nM, respectively. Moreover, the Solubility result in series [3] was “soluble in dimethylsulfoxide, pyridine, methanol and acetone, and slightly soluble in water”.
Turning to `CCC(OC)C(C)C1OC1C(O)C(C)/C=C/C=C(\C)C1OC(=O)CC(O)CCC(C)(O)C(OC(C)=O)/C=C/C1C` (centres unmarked) [FD895], in the series on P388 mouse leukemia cell, the “effect in an animal experiment using P388 mouse leukemia cell” value is “ineffective”.
Regarding `CCC(O)C(C)C1OC1CC(C)/C=C/C=C(\C)C1OC(=O)CC(O)CCC(C)(O)C(OC(C)=O)/C=C/C1C` (centres unmarked) [11107 B], the “VEGF production suppressing action: IC50” value in series [1] (U251, low oxygen (2% O2) incubator 18 hours) is 0.8 ng/mL. Further, the relative tumor volume turned out to be 1 in series [4] (day 1 after the administration (volume at initiation of administration set as 1)); 1.08 in series [4] (day 5 after the administration); 1.28 in series [4] (day 8 after the administration); 1.40 in series [4] (day 12 after the administration); 1.70 in series [4] (day 15 after the administration).
